IC50 data for 22 compounds are collected here from patent US12258365B2, “Organophosphorus-substituted compounds as c-MET inhibitors and therapeutic uses thereof” (BETA PHARMA, INC., priority 2018, dated 2025).

By IC50 is commonly meant the concentration that gives 50% inhibition.

Chain of c-MET (P08581 25-1390): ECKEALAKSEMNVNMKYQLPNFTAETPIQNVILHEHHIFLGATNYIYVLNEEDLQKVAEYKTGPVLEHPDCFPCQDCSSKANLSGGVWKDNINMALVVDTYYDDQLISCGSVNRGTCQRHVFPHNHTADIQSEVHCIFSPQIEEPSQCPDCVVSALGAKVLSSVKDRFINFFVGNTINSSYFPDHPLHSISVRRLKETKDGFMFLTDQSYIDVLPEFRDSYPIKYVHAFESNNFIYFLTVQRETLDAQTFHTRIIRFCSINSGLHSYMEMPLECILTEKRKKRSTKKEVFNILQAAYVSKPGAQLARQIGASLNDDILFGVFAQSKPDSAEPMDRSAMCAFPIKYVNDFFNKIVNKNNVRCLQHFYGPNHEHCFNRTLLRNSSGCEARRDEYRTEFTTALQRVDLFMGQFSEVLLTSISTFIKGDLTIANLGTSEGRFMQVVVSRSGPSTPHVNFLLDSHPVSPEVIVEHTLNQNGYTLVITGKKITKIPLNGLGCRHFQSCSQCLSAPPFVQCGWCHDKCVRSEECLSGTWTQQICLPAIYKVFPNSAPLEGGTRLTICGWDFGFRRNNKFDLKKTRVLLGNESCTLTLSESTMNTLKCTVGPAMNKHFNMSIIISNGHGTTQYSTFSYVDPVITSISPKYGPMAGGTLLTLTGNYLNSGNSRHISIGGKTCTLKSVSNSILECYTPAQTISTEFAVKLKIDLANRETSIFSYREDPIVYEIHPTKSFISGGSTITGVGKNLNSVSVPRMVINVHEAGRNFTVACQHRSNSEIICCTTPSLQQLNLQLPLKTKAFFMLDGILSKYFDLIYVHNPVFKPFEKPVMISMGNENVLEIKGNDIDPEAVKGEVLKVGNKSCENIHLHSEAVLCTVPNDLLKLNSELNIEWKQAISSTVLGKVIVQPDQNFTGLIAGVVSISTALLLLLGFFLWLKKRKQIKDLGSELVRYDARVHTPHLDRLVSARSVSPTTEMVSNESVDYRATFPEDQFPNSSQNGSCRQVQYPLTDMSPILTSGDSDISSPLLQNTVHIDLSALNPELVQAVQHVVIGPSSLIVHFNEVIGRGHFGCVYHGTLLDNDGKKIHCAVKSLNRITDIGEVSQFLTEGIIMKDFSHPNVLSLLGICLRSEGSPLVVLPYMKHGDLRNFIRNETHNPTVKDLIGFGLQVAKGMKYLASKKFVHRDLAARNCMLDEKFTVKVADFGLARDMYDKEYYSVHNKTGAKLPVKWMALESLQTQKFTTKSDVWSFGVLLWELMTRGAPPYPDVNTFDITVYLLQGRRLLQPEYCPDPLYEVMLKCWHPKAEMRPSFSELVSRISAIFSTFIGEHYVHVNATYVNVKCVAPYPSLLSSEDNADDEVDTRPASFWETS

The assay has as its target c-MET (Homo sapiens, UniProt P08581). The assay can be described thus: Biochemical kinase assay (33P-ATP, filter-binding). The conditions noted are these: radiometric 33P-ATP filter-binding kinase reaction, 20 min preincubation, 2 hours at room temperature. On the procedure: Reaction Buffer: 20 mM Hepes (pH 7.5), 10 mM MgCl2, 1 mM EGTA, 0.02%, Brij35, 0.02 mg/mL BSA, 0.1 mM Na3VO4, 2 mM DTT and 1% DMSO.
Required cofactors were added individually to each kinase reaction.
The testing compounds were dissolved in 100% DMSO to specific concentration. The serial dilution was conducted by Integra Viaflo Assist in DMSO.
• 1. Prepare substrate in freshly prepared Reaction Buffer. • 2. Deliver any required cofactors to the substrate solution above. • 3. Deliver kinase into the substrate solution and gently mix. • 4. Deliver compounds in 100% DMSO into the kinase reaction mixture by Acoustic technology (Echo550; nanoliter range), incubate for 20 min at room temp. • 5. Deliver ^33P-ATP (Specific activity 10 μCi/μL) into the reaction mixture to initiate the reaction. • 6. Incubate for 2 hours at room temperature. • 7. Detect radioactivity by filter-binding method. • 8. Kinase activity data were expressed as the percent remaining kinase activity in test samples compared to vehicle (DMSO) reactions. IC50 values and curve fits were obtained using Prism (GraphPad Software) (Table 1).
In turn, `CP(C)(=O)c1ccc(-c2cnc3nnn(Cc4ccc5ncccc5c4)c3n2)cc1` [Example 1, Dimethyl(4-(1-(quinolin-6-ylmethyl)-1H-[1,2,3]triazolo[4,5-b]pyrazin-6-yl)phenyl)-phosphine oxide] registered an IC50 below 0.01 µM. `CCOP(C)(=O)Cc1ccc(-c2cnc3nnn(Cc4ccc5ncccc5c4)c3n2)cc1` (stereo not shown) [Example 2, Ethyl methyl(4-(1-(quinolin-6-ylmethyl)-1H-[1,2,3]triazolo[4,5-b]pyrazin-6-yl)benzyl)-phosphinate] displayed an IC50 below 0.01 µM. With `CP(=O)(O)Cc1ccc(-c2cnc3nnn(Cc4ccc5ncccc5c4)c3n2)cc1` [Example 3, Methyl(4-(1-(quinolin-6-ylmethyl)-1H-[1,2,3]triazolo[4,5-b]pyrazin-6-yl)benzyl)-phosphinic Acid] the figure was below 0.01 µM; with `CP(C)(=O)c1ccc(-c2cnc3nnn(Cc4ccc5ncccc5c4)c3n2)c(F)c1` [Example 4, (3-Fluoro-4-(1-(quinolin-6-ylmethyl)-1H-[1,2,3]triazolo[4,5-b]pyrazin-6-yl)phenyl)dimethylphosphine oxide], 0.011 to 0.02 µM. As for `CP(C)(=O)c1ccc(-c2cnc3nnn(Cc4ccc5ncccc5c4)c3n2)cc1F` [Example 5, (2-Fluoro-4-(1-(quinolin-6-ylmethyl)-1H-[1,2,3]triazolo[4,5-b]pyrazin-6-yl)phenyl)dimethyl-phosphine Oxide], the figure is below 0.01 µM; as for `CP(C)(=O)c1ccc(-c2cnc3nnn(Cc4ccc5nccn5c4)c3n2)cc1` [Example 6, (4-(1-(Imidazo[1,2-a]pyridin-6-ylmethyl)-1H-[1,2,3]triazolo[4,5-b]pyrazin-6-yl)phenyl)dimethylphosphine Oxide], below 0.01 µM. With `CP(C)(=O)c1cccc(-c2cnc3nnn(Cc4ccc5nccn5c4)c3n2)c1` [Example 7, (3-(1-(Imidazo[1,2-a]pyridin-6-ylmethyl)-1H-[1,2,3]triazolo[4,5-b]pyrazin-6-yl)phenyl)-dimethylphosphine Oxide] the figure was 0.011 to 0.02 µM; with `CP(C)(=O)c1cccc(-c2cnc3nnn(Cc4ccc5ncccc5c4)c3n2)c1` [Example 8, Dimethyl(3-(1-(quinolin-6-ylmethyl)-1H-[1,2,3]triazolo[4,5-b]pyrazin-6-yl)phenyl)phosphine Oxide], 0.011 to 0.02 µM; with `CP(C)(=O)Cn1cc(-c2cnc3nnn(Cc4ccc5ncccc5c4)c3n2)cn1` [Example 9, Dimethyl((4-(1-(quinolin-6-ylmethyl)-1H-[1,2,3]triazolo[4,5-b]pyrazin-6-yl)-1H-pyrazol-1-yl)methyl)phosphine Oxide], 0.021 to 0.1 µM. Consider `CP(C)(=O)Cn1cc(-c2cnc3nnn(Cc4ccc5nccn5c4)c3n2)cn1` [Example 10, ((4-(1-(Imidazo[1,2-a]pyridin-6-ylmethyl)-1H-[1,2,3]triazolo[4,5-b]pyrazin-6-yl)-1H-pyrazol-1-yl)methyl)dimethylphosphine Oxide], for which the IC50 lay in the range of 0.021 to 0.1 µM.

In turn, `CP(C)(=O)c1ccc(Nc2cnc3nnn(Cc4ccc5ncccc5c4)c3n2)cc1` [Example 11, Dimethyl(4-((1-(quinolin-6-ylmethyl)-1H-[1,2,3]triazolo[4,5-b]pyrazin-6-yl)amino)phenyl)phosphine Oxide] yielded an IC50 below 0.01 µM. For the compound `CP(C)(=O)c1ccc(Nc2cnc3nnn(Cc4ccc5ncccc5c4)c3n2)cc1F` [Example 12, (2-Fluoro-4-((1-(quinolin-6-ylmethyl)-1H-[1,2,3]triazolo[4,5-b]pyrazin-6-yl)amino)phenyl)dimethylphosphine Oxide], the IC50 is below 0.01 µM. As to `CP(C)(=O)c1cccc(-c2ccc3nnc(C(F)(F)c4ccc5nccn5c4)n3n2)c1` [Example 13, (3-(3-(Difluoro(imidazo[1,2-a]pyridin-6-yl)methyl)-[1,2,4]triazolo[4,3-b]pyridazin-6-yl)phenyl)dimethylphosphine Oxide], the half-inhibitory concentration (IC50) is 0.021 to 0.1 µM. As for `CP(C)(=O)c1ccc(-c2ccc3nnc(C(F)(F)c4ccc5nccn5c4)n3n2)cc1` [Example 14, (4-(3-(Difluoro(imidazo[1,2-a]pyridin-6-yl)methyl)-[1,2,4]triazolo[4,3-b]pyridazin-6-yl)phenyl)dimethylphosphine Oxide], the figure is 1 to 6 µM; as for `CC(c1ccc2nccn2c1)n1nnc2ncc(-c3ccc(P(C)(C)=O)cc3)nc21` (stereo not shown) [Example 15, (4-(1-(1-(Imidazo[1,2-a]pyridin-6-yl)ethyl)-1H-[1,2,3]triazolo[4,5-b]pyrazin-6-yl)phenyl)dimethylphosphine Oxide], below 0.01 µM. `CP(C)(=O)c1ccc(-c2cnc3nnn(Cc4ccc5c(c4)CCO5)c3n2)cc1` [Example 16, (4-(1-((2,3-Dihydrobenzofuran-5-yl)methyl)-1H-[1,2,3]triazolo[4,5-b]pyrazin-6-yl)phenyl)dimethylphosphine Oxide] came in with an IC50 of 0.011 to 0.02 µM. For `CP(C)(=O)c1ccc(-c2cnc3nnn(Cc4ccc5ncc(F)n5c4)c3n2)cc1` [Example 17, (4-(1-((3-Fluoroimidazo[1,2-a]pyridin-6-yl)methyl)-1H-[1,2,3]triazolo[4,5-b]pyrazin-6-yl)phenyl)dimethylphosphine Oxide], the IC50 lay in the range of 0.021 to 0.1 µM.

`CP(C)(=O)c1cnc2nnn(Cc3ccc4ncccc4c3)c2n1` [Example 18, Dimethyl(1-(quinolin-6-ylmethyl)-1H-[1,2,3]triazolo[4,5-b]pyrazin-6-yl)phosphine Oxide] gave an IC50 of 1 to 6 µM. With `CC(c1ccc2ncccc2c1)n1nnc2ncc(-c3ccc(P(C)(C)=O)cc3)nc21` (stereo not shown) [Example 19, Dimethyl(4-(1-(1-(quinolin-6-yl)ethyl)-1H-[1,2,3]triazolo[4,5-b]pyrazin-6-yl)phenyl)phosphine Oxide] the figure was below 0.01 µM. As for `Cn1cc2cc(Cn3nnc4ncc(-c5ccc(P(C)(C)=O)cc5)nc43)c(F)cc2n1` [Example 20, (4-(1-((6-Fluoro-2-methyl-2H-indazol-5-yl)methyl)-1H-[1,2,3]triazolo[4,5-b]pyrazin-6-yl)phenyl)dimethylphosphine Oxide], the figure is below 0.01 µM; as for `Cn1cc2cc(Cn3nnc4ncc(-c5ccc(P(C)(C)=O)c(F)c5)nc43)c(F)cc2n1` [Example 21, (2-fluoro-4-(1-((6-fluoro-2-methyl-2H-indazol-5-yl)methyl)-1H-[1,2,3]triazolo[4,5-b]pyrazin-6-yl)phenyl)-dimethylphosphine oxide], below 0.01 µM. The compound `Cn1cc2cc(Cn3nnc4ncc(-c5ccc(P(C)(C)=O)c(F)c5)nc43)ccc2n1` [Example 22, (2-Fluoro-4-(1-((2-methyl-2H-indazol-5-yl)methyl)-1H-[1,2,3]triazolo[4,5-b]pyrazin-6-yl)phenyl)dimethylphosphine Oxide] showed an IC50 below 0.01 µM.
